Test results from patent US20220213047A1, “CARBONIC ANHYDRASE INHIBITORS FOR TREATMENT OF NEISSERIA GONORRHOEAE INFECTION” (Purdue Research Foundation, priority 2021, published 2022).
Converted amounts (≈) assume the structure as drawn.

What was measured:
[1] = tested on: N. gonorrhoeae; test: Post-antibiotic effect (PAE); format: cell-based; settings: after exposure to 10×MIC for 1 hour
[2] = tested on: S. pneumoniae; test: MIC50 against pathogenic and commensal bacteria: S. pneumoniae; format: cell-based; settings: Streptococcus pneumoniae; S. pneumoniae (4 strains); normal
Excerpt: (§1) We have shown that CAIs display a narrow-spectrum of activity (Table 6). We have previously shown that CAIs have potential as anti-enterococcal agents for decolonization of the gut and treating systemic vancomycin-resistant enterococci (VRE) infections without affecting commensal strains common in the human microbiome or other pathogenic bacteria. […] The extremely narrow spectrum of this class of inhibitors would be a positive for clinical use as the molecules: 1) would not have deleterious effects on normal microbiota, and 2) would have less opportunity for resistance to arise to other important pathogenic strains aside from VRE.

[3] = tested on: N. gonorrhoeae; test: Checkerboard assay, synergy with AZI; format: cell-based; settings: combination with AZI, standard checkerboard assay
Excerpt: CAIs work synergistically with approved antibiotics—Dual therapy with ceftriaxone and azithromycin is the recommended approach to treat infections caused by N. gonorrhoeae. The use of two antibiotics in conjunction is thought to curb the rapid emergence of resistance to either antibiotic, if used alone. Thus, we investigated the potential of CAIs to be used in combination with other antibiotics against N. gonorrhoeae^56 (FIG. 5).

[4] = tested on: N. gonorrhoeae; test: Multi-step resistance selection; format: cell-based; settings: over ten passages
Excerpt: Frequency of mutation—multi-step mutation—We investigated N. gonorrhoeae's ability to develop resistance to CAIs using the multi-step resistance selection experiment^58.
N. gonorrhoeae cultures that grew at the highest concentrations of the compound are used as an inoculum for the subsequent culture.

[5] = tested on: ATCC strain 700825; test: MICs against ATCC strain 700825; format: cell-based, N. gonorrhoeae; settings: Neisseria gonorrhoeae
Procedure: These tests were performed in normal culture conditions with standard CO2 levels and in CO2 (5% in incubator) conditions.

[6] = tested on: S. aureus; test: MIC50 against pathogenic and commensal bacteria: S. aureus; format: cell-based; settings: Staphylococcus aureus; S. aureus (12 strains); normal
Excerpt: as §1

CCOc1ccc2nc(S(N)(=O)=O)sc2c1 [Ethoxzolamide]
PAE ([1]; Ng 181): 10 h
PAE ([1]; Ng 186): 10 h
PAE ([1]; Ng 194): 10 h
PAE ([1]; Ng 198): 10 h
PAE ([1]; clinical isolates of N. gonorrhoeae): 10 h
MIC50 [2]: > 512 µg/mL
FIC [3]: 0.240
increase in MIC [4]: no increase
MIC ([5]; ATCC700825, In CO2): 64 µg/mL (≈ 248 µM)
MIC ([5]; ATCC700825, In air): 0.5 µg/mL (≈ 1.94 µM)
MIC50 [6]: > 256 µg/mL
